# Assays:
# VX-702 + Foretinib = compound: NC(=O)c1ccc(N(C(N)=O)c2c(F)cccc2F)nc1-c1ccc(F)cc1F [VX-702] + COc1cc2c(Oc3ccc(NC(=O)C4(C(=O)Nc5ccc(F)cc5)CC4)cc3F)ccnc2cc1OCCCN1CCOCC1 [Foretinib] (partner 0.25 µM); experiment: relative viability (nuclei count vs DMSO), 5 days (fraction); higher = more cells survive
# Summary of the method: (§1)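 Lung cancer cell lines in 1536-well plates got either a single drug or a fixed anchor-drug dose together with five library-drug doses (not always all listed) in √10 steps, by pin tool, on the day after seeding. Nuclei were counted after 5 days, and relative viability is the treated-to-vehicle ratio of nuclei counts. Values are medians of duplicate plates.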
# Dabrafenib + Navitoclax = compound: CC(C)(C)c1nc(-c2cccc(NS(=O)(=O)c3c(F)cccc3F)c2F)c(-c2ccnc(N)n2)s1 [Dabrafenib] + CC1(C)CCC(c2ccc(Cl)cc2)=C(CN2CCN(c3ccc(C(=O)NS(=O)(=O)c4ccc(N[C@H](CCN5CCOCC5)CSc5ccccc5)c(S(=O)(=O)C(F)(F)F)c4)cc3)CC2)C1 [Navitoclax] (partner 0.5 µM); experiment: as above
# Summary of the method: as §1
Cell Line,relative viability (VX-702 + Foretinib; first compound 0.02 µM),relative viability (VX-702 + Foretinib; first compound 0.2 µM),relative viability (VX-702 + Foretinib; first compound 0.6325 µM),relative viability (VX-702 + Foretinib; first compound 2 µM),relative viability (Dabrafenib + Navitoclax; first compound 0.003 µM),relative viability (Dabrafenib + Navitoclax; first compound 0.009487 µM),relative viability (Dabrafenib + Navitoclax; first compound 0.03 µM),relative viability (Dabrafenib + Navitoclax; first compound 0.09487 µM),relative viability (Dabrafenib + Navitoclax; first compound 0.3 µM)
NCI-H2009,1.28,1.28,1.28,1.38,1.11,1.02,1.06,0.909,0.841
NCI-H2023,0.761,0.722,0.724,1,1.06,1.03,0.995,0.915,1.05
NCI-H2085,1.05,0.898,0.967,0.968,1.15,1.14,1.16,1.1,1.09
NCI-H2087,1.18,0.915,1.12,1.23,0.947,0.881,0.893,0.842,0.892
NCI-H2126,1.15,1.1,1.21,1.18,0.779,0.887,0.823,0.866,0.956
NCI-H2170,1.07,1,1.08,1.03,0.702,0.704,0.463,0.641,0.594
NCI-H2228,0.889,0.851,1.07,0.887,0.543,0.953,0.693,0.854,0.757
NCI-H2342,0.887,1.07,1.02,1.14,,,,,
NCI-H2347,1.49,0.828,1.16,1.03,0.536,0.92,0.733,0.766,0.752
NCI-H2405,1.08,0.98,0.965,1.02,,0.697,,0.734,0.73
NCI-H3122,0.964,0.946,1.01,0.923,1.04,1.01,1.06,0.991,1.08
PC-3 [JPC-3],1.11,1.02,1.1,1.05,0.85,0.829,0.822,0.781,0.788
PC-14,1.02,0.956,0.986,1.08,1.01,0.977,1.05,1.01,1.06
RERF-LC-KJ,0.995,0.923,0.984,0.934,1.21,1.21,0.902,,1.15
SK-LU-1,0.917,0.786,0.777,1.01,0.557,0.789,0.806,0.709,0.567
SK-MES-1,0.935,0.97,0.934,0.911,1.22,1.22,1.2,1.04,1.17
SW 1573,1.05,0.876,0.784,0.679,1.13,1.04,0.998,0.755,1.06
UMC-11,0.988,0.843,0.893,1.21,0.295,0.369,0.315,0.356,0.332

# From the supplement of paper PMC10307832
